# According to PMC10825183 (Nature Communications, 2024):
# Tests used:
# rbHCN4 full-length (FL) = molecular target: T1, rbHCN4 full-length (FL) (Oryctolagus cuniculus, UniProt Q9TV66); experiment: Whole-cell patch clamp in HEK293T cells, HCN4 full length; format: cell-based, rabbit
# T1 construct: The cDNA encoding the full-length rabbit HCN4 was previously cloned in pCI (Promega) mammalian expression vector; expressed in transfected cells; host or cells: HEK293T
# T1 sequence (Q9TV66 1-1175): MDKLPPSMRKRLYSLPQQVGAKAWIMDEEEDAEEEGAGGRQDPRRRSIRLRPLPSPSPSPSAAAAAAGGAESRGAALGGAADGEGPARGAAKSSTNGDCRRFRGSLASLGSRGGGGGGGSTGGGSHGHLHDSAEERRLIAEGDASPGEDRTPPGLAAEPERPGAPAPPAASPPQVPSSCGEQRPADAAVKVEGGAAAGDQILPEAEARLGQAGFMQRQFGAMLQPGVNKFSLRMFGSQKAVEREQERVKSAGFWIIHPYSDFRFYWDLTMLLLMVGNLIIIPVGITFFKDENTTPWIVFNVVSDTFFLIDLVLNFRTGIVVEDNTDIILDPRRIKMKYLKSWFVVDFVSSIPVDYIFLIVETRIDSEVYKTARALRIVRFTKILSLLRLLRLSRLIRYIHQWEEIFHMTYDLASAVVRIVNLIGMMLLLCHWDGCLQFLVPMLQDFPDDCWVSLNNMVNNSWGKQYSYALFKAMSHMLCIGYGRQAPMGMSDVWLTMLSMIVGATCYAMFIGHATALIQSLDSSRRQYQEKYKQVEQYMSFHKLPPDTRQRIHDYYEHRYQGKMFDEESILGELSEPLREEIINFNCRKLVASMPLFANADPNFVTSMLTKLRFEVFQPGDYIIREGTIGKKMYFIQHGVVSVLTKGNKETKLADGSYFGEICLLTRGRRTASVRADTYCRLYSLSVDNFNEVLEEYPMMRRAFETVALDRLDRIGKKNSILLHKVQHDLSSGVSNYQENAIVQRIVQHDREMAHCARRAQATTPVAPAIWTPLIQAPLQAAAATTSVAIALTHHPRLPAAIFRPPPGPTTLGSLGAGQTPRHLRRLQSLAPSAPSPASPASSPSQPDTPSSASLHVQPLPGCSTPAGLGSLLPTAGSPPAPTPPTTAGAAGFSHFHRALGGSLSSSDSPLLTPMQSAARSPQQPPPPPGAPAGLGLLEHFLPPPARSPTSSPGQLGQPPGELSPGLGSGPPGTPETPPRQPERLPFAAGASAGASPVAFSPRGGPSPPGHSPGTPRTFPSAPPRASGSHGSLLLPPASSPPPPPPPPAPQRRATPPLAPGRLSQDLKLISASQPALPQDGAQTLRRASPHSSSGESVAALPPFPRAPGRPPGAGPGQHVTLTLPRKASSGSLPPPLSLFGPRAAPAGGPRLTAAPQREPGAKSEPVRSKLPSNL
# rbHCN4 ΔE (1-733) = molecular target: T2, rbHCN4 ΔE (1-733) (Oryctolagus cuniculus, UniProt Q9TV66); experiment: Whole-cell patch clamp in HEK293T cells, HCN4 ΔE; format: cell-based, rabbit
# T2 construct: rbHCN4 ΔE (1-733); expressed in transfected cells; host or cells: HEK293T
# T2 sequence (Q9TV66 1-733): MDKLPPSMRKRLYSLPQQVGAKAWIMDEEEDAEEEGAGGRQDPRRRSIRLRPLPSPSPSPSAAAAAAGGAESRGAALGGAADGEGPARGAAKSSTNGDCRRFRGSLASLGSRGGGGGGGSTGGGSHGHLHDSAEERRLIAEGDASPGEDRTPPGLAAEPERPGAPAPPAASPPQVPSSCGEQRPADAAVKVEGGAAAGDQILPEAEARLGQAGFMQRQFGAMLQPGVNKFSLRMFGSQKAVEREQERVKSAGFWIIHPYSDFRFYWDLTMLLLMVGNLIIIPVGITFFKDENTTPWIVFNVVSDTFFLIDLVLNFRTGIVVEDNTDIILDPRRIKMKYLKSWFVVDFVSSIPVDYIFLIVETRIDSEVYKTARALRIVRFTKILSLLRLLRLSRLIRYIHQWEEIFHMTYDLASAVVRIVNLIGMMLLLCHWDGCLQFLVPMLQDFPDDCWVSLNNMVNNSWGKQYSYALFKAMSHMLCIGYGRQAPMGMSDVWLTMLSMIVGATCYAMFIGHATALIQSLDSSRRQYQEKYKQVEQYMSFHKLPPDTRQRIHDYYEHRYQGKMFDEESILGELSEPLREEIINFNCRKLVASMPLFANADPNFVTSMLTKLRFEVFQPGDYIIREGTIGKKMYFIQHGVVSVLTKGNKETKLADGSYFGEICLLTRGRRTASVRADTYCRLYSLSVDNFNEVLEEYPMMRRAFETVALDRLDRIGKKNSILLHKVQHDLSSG
# rbHCN4 ΔC-term (1-758) = rbHCN4 ΔC-term (1-758) (Oryctolagus cuniculus, UniProt Q9TV66); conditions: mean ± SEM
# rbHCN4 ΔDE (1-718) = rbHCN4 ΔDE (1-718) (Oryctolagus cuniculus, UniProt Q9TV66)
# rbHCN4 D750A = rbHCN4 D750A (Oryctolagus cuniculus, UniProt Q9TV66, D750A)
# Chain of rbHCN4 D750A (Q9TV66 whole entry D750A): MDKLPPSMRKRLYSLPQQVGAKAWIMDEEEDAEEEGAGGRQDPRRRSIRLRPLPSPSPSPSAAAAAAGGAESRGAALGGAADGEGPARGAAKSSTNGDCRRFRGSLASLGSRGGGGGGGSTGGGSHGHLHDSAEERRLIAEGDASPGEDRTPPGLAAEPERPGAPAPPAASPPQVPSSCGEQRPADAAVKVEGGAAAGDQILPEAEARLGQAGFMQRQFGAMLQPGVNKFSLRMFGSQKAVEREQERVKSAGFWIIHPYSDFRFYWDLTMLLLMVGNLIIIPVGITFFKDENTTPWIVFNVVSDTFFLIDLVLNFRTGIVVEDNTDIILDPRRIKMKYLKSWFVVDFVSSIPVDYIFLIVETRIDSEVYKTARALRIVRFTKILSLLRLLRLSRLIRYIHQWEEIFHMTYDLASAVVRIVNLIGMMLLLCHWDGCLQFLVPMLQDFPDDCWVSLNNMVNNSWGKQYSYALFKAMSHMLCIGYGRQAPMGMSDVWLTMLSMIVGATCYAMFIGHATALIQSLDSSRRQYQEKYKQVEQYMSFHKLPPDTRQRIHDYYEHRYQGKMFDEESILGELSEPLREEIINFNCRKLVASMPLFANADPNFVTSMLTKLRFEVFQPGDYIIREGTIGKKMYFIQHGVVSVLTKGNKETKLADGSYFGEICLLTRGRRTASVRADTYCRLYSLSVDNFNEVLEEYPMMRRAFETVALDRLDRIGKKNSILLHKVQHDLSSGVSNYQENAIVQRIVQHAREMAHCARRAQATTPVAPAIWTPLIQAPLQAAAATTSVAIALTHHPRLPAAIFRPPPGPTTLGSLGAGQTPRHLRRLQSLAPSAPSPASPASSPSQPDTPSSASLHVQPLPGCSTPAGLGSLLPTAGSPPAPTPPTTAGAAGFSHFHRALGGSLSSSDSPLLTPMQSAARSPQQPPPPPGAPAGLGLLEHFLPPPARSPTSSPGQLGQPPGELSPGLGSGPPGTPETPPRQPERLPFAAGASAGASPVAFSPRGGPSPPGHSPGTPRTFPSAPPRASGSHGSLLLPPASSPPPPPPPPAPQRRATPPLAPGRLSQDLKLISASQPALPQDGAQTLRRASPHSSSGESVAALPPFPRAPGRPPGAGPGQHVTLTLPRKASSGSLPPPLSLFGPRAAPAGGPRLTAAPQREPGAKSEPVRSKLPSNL
# [1] = system: full-length HCN2 with a C-linker and CNBD from HCN4; conditions: ref Xu et al, JBC, 2010; cited from earlier work
# human HCN2 CNBD ΔDE = molecular target: T3, human HCN2 CNBD ΔDE (Homo sapiens, UniProt Q9UL51); experiment: Isothermal titration calorimetry (ITC), CNBD ΔDE; conditions: cAMP titrated into 20 µM CNBD, 25 °C, mean ± SEM, n = 3
# T3 sequence (Q9UL51 521-667): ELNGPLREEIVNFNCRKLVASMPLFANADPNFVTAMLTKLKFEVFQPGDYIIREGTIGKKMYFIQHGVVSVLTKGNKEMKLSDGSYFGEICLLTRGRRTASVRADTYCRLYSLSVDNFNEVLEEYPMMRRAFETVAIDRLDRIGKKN
# [2] = 5 µM cAMP in pipette, mean ± SEM
# [3] = Hill fit of shift in V1/2 vs cAMP concentration
structure (smiles),measurement,setting,value
"Nc1ncnc2c1ncn2[C@@H]1O[C@@H]2COP(=O)(O)O[C@H]2[C@H]1O [cAMP, Adenosine 3′,5′-cyclic monophosphate]",V1/2 with cAMP,"rbHCN4 full-length (FL); 1 µM cAMP in pipette, mean ± SEM",-89.9 ± 1.6 mV
same,k (inverse slope factor) with cAMP,"rbHCN4 full-length (FL); 1 µM cAMP, mean ± SEM",11.7 ± 1 mV
same,V1/2 with cAMP,rbHCN4 full-length (FL); [2],-87.5 ± 0.7 mV
same,k (inverse slope factor) with cAMP,"rbHCN4 full-length (FL); 5 µM cAMP, mean ± SEM",10.6 ± 0.4 mV
same,V1/2 + cAMP,"rbHCN4 full-length (FL); 15 µM cAMP in pipette, mean ± SEM",-79.3 ± 0.9 mV
same,k + cAMP,"rbHCN4 full-length (FL); 15 µM cAMP, mean ± SEM",10.2 ± 1 mV
same,Hill coefficient (nH),rbHCN4 full-length (FL); [3],0.9
same,V1/2 with cAMP,rbHCN4 ΔE (1-733); [2],-97.2 ± 0.6 mV
same,k (inverse slope factor) with cAMP,"rbHCN4 ΔE (1-733); 5 µM cAMP, mean ± SEM",9.1 ± 1.2 mV
same,V1/2 + cAMP,"rbHCN4 ΔE (1-733); 60 µM cAMP in pipette, mean ± SEM",-81.1 ± 0.8 mV
same,k + cAMP,"rbHCN4 ΔE (1-733); 60 µM cAMP, mean ± SEM",9.8 ± 0.8 mV
same,Hill coefficient (nH),rbHCN4 ΔE (1-733); [3],0.9
same,V1/2 with cAMP,rbHCN4 ΔC-term (1-758); 1 µM cAMP in pipette,-88.9 ± 1.5 mV
same,k (inverse slope factor) with cAMP,rbHCN4 ΔC-term (1-758); 1 µM cAMP,9.6 ± 0.5 mV
same,V1/2 with cAMP,rbHCN4 ΔDE (1-718); [2],-102.4± 0.6 mV
same,k (inverse slope factor) with cAMP,"rbHCN4 ΔDE (1-718); 5 µM cAMP, mean ± SEM",7.6 ± 0.3 mV
same,Hill coefficient (nH),rbHCN4 ΔDE (1-718); [3],1
same,V1/2 with cAMP,rbHCN4 D750A; [2],-96 ±1.7 mV
same,k (inverse slope factor) with cAMP,"rbHCN4 D750A; 5 µM cAMP, mean ± SEM",9 ± 0.5 mV
same,Hill coefficient (nH),rbHCN4 D750A; [3],0.8
same,EC50,[1],0.24 µM
same,Kd,human HCN2 CNBD ΔDE,9.5 ± 0.7 µM
